Test results: the NIST ThermoML archive (doi:10.1016/j.jct.2019.05.021)
± gives the expanded uncertainty stated by the source. One block for each compound: values may come before it.

Key:
[1] = 100 kPa, Liquid; for viscosity: Falling or rolling sphere viscometry; for mass density: Vibrating tube method
[2] = xn = mol fraction of the nth substance listed; conditions: 100 kPa, Liquid, x1 = 1; for viscosity: Falling or rolling sphere viscometry; for mass density: Vibrating tube method

Structure (SMILES): CCCCCCCCCC(=O)OC [methyl decanoate]
viscosity ([1]; 293.15 K): 2.125 ± 0.047 mPa·s
mass density ([1]; 293.15 K): 872.25 ± 1.8 kg/m3
viscosity ([1]; 298.15 K): 1.909 ± 0.042 mPa·s
mass density ([1]; 298.15 K): 868.16 ± 1.8 kg/m3
viscosity ([1]; 303.15 K): 1.738 ± 0.038 mPa·s
mass density ([1]; 303.15 K): 864.06 ± 1.8 kg/m3
viscosity ([1]; 308.15 K): 1.588 ± 0.035 mPa·s
mass density ([1]; 308.15 K): 859.96 ± 1.7 kg/m3
viscosity ([1]; 313.15 K): 1.453 ± 0.032 mPa·s
mass density ([1]; 313.15 K): 855.85 ± 1.7 kg/m3
viscosity ([1]; 318.15 K): 1.341 ± 0.029 mPa·s
mass density ([1]; 318.15 K): 851.74 ± 1.7 kg/m3
viscosity ([1]; 323.15 K): 1.245 ± 0.027 mPa·s
mass density ([1]; 323.15 K): 847.62 ± 1.7 kg/m3

Structure (SMILES): CCCCCCCCCCCC(=O)OC [methyl dodecanoate]
viscosity ([1]; 293.15 K): 3.151 ± 0.067 mPa·s
mass density ([1]; 293.15 K): 869.3 ± 1.7 kg/m3
viscosity ([1]; 298.15 K): 2.792 ± 0.06 mPa·s
mass density ([1]; 298.15 K): 865.39 ± 1.7 kg/m3
viscosity ([1]; 303.15 K): 2.504 ± 0.054 mPa·s
mass density ([1]; 303.15 K): 861.46 ± 1.7 kg/m3
viscosity ([1]; 308.15 K): 2.263 ± 0.048 mPa·s
mass density ([1]; 308.15 K): 857.53 ± 1.7 kg/m3
viscosity ([1]; 313.15 K): 2.049 ± 0.044 mPa·s
mass density ([1]; 313.15 K): 853.61 ± 1.7 kg/m3
viscosity ([1]; 318.15 K): 1.875 ± 0.04 mPa·s
mass density ([1]; 318.15 K): 849.69 ± 1.7 kg/m3
viscosity ([1]; 323.15 K): 1.729 ± 0.037 mPa·s
mass density ([1]; 323.15 K): 845.76 ± 1.7 kg/m3

Structure (SMILES): CC1CCCCC1 [methylcyclohexane] + CCCCCCCCCC(=O)OC
viscosity ([2]; 293.15 K): 0.733 ± 0.016 mPa·s
mass density ([2]; 293.15 K): 769.38 ± 1.6 kg/m3
viscosity ([2]; 298.15 K): 0.681 ± 0.015 mPa·s
mass density ([2]; 298.15 K): 765.06 ± 1.5 kg/m3
viscosity ([2]; 303.15 K): 0.638 ± 0.014 mPa·s
mass density ([2]; 303.15 K): 760.71 ± 1.5 kg/m3
viscosity ([2]; 308.15 K): 0.599 ± 0.013 mPa·s
mass density ([2]; 308.15 K): 756.35 ± 1.5 kg/m3
viscosity ([2]; 313.15 K): 0.563 ± 0.012 mPa·s
mass density ([2]; 313.15 K): 751.98 ± 1.5 kg/m3
viscosity ([2]; 318.15 K): 0.533 ± 0.011 mPa·s
mass density ([2]; 318.15 K): 747.59 ± 1.5 kg/m3
viscosity ([2]; 323.15 K): 0.505 ± 0.011 mPa·s
mass density ([2]; 323.15 K): 743.19 ± 1.5 kg/m3

Structure (SMILES): CC1CCCCC1 [methylcyclohexane] + CCCCCCCCCCCC(=O)OC
viscosity ([2]; 293.15 K): 0.733 ± 0.016 mPa·s
mass density ([2]; 293.15 K): 769.38 ± 1.6 kg/m3
viscosity ([2]; 298.15 K): 0.681 ± 0.015 mPa·s
mass density ([2]; 298.15 K): 765.06 ± 1.5 kg/m3
viscosity ([2]; 303.15 K): 0.638 ± 0.014 mPa·s
mass density ([2]; 303.15 K): 760.71 ± 1.5 kg/m3
viscosity ([2]; 308.15 K): 0.599 ± 0.013 mPa·s
mass density ([2]; 308.15 K): 756.35 ± 1.5 kg/m3
viscosity ([2]; 313.15 K): 0.563 ± 0.012 mPa·s
mass density ([2]; 313.15 K): 751.98 ± 1.5 kg/m3
viscosity ([2]; 318.15 K): 0.533 ± 0.011 mPa·s
mass density ([2]; 318.15 K): 747.59 ± 1.5 kg/m3
viscosity ([2]; 323.15 K): 0.505 ± 0.011 mPa·s
mass density ([2]; 323.15 K): 743.19 ± 1.5 kg/m3

The next lines start with the values.

viscosity ([1]; 293.15 K): 4.557 ± 0.1 mPa·s
mass density ([1]; 293.15 K): 867.17 ± 1.8 kg/m3
viscosity ([1]; 298.15 K): 3.979 ± 0.088 mPa·s
mass density ([1]; 298.15 K): 863.35 ± 1.8 kg/m3
viscosity ([1]; 303.15 K): 3.519 ± 0.078 mPa·s
mass density ([1]; 303.15 K): 859.54 ± 1.8 kg/m3
viscosity ([1]; 308.15 K): 3.093 ± 0.069 mPa·s
mass density ([1]; 308.15 K): 855.74 ± 1.7 kg/m3
viscosity ([1]; 313.15 K): 2.797 ± 0.062 mPa·s
mass density ([1]; 313.15 K): 851.94 ± 1.7 kg/m3
viscosity ([1]; 318.15 K): 2.544 ± 0.056 mPa·s
mass density ([1]; 318.15 K): 848.14 ± 1.7 kg/m3
viscosity ([1]; 323.15 K): 2.308 ± 0.051 mPa·s
mass density ([1]; 323.15 K): 844.34 ± 1.7 kg/m3
Structure (SMILES): CCCCCCCCCCCCCC(=O)OC [methyl tetradecanoate]

viscosity ([1]; 293.15 K): 0.733 ± 0.016 mPa·s
mass density ([1]; 293.15 K): 769.38 ± 1.6 kg/m3
viscosity ([1]; 298.15 K): 0.681 ± 0.015 mPa·s
mass density ([1]; 298.15 K): 765.06 ± 1.5 kg/m3
viscosity ([1]; 303.15 K): 0.638 ± 0.014 mPa·s
mass density ([1]; 303.15 K): 760.71 ± 1.5 kg/m3
viscosity ([1]; 308.15 K): 0.599 ± 0.013 mPa·s
mass density ([1]; 308.15 K): 756.35 ± 1.5 kg/m3
viscosity ([1]; 313.15 K): 0.563 ± 0.012 mPa·s
mass density ([1]; 313.15 K): 751.98 ± 1.5 kg/m3
viscosity ([1]; 318.15 K): 0.533 ± 0.011 mPa·s
mass density ([1]; 318.15 K): 747.59 ± 1.5 kg/m3
viscosity ([1]; 323.15 K): 0.505 ± 0.011 mPa·s
mass density ([1]; 323.15 K): 743.19 ± 1.5 kg/m3
Structure (SMILES): CC1CCCCC1 [methylcyclohexane]

viscosity ([2]; 293.15 K): 0.733 ± 0.016 mPa·s
mass density ([2]; 293.15 K): 769.38 ± 1.6 kg/m3
viscosity ([2]; 298.15 K): 0.681 ± 0.015 mPa·s
mass density ([2]; 298.15 K): 765.06 ± 1.5 kg/m3
viscosity ([2]; 303.15 K): 0.638 ± 0.014 mPa·s
mass density ([2]; 303.15 K): 760.71 ± 1.5 kg/m3
viscosity ([2]; 308.15 K): 0.599 ± 0.013 mPa·s
mass density ([2]; 308.15 K): 756.35 ± 1.5 kg/m3
viscosity ([2]; 313.15 K): 0.563 ± 0.012 mPa·s
mass density ([2]; 313.15 K): 751.98 ± 1.5 kg/m3
viscosity ([2]; 318.15 K): 0.533 ± 0.011 mPa·s
mass density ([2]; 318.15 K): 747.59 ± 1.5 kg/m3
viscosity ([2]; 323.15 K): 0.505 ± 0.011 mPa·s
mass density ([2]; 323.15 K): 743.19 ± 1.5 kg/m3
Structure (SMILES): CC1CCCCC1 [methylcyclohexane] + CCCCCCCCCCCCCC(=O)OC
